Results reported in article PMC5216056 (Nature Communications, 2017).
Several values for one entry are separate records, joined by “and”; a condition that tells them apart may be missing. Identical values can stand only once. Like-named read-outs stand apart in the source and are kept apart here.

Columns and labels:
MAGL = target: T1, MAGL (Homo sapiens, UniProt Q99685); assay: Biochemical MAGL activity assay; conditions: for inhibition at 10 µM: read-out: MAGL % inhibition at 10 µM ± SD
T1 construct: expressed in transfected cells; host or cells: HEK293T (transient), membrane preparation
T1 sequence (Q99685 1-303): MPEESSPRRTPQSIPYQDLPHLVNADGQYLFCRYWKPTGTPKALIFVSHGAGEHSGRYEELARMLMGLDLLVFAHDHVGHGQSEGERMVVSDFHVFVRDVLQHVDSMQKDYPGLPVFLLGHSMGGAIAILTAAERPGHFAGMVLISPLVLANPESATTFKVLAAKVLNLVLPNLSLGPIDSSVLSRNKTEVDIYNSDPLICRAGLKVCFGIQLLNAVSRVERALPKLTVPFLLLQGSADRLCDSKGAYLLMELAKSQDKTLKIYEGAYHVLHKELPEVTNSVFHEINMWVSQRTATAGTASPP
Procedure: (§1) Cell culture and membrane preparation were performed as previously described. HEK293T cells (source: Dutch Cancer Institute) were grown in DMEM with stable glutamine and phenolred (PAA), 10% New Born Calf serum, penicillin and streptomycin. Cells were passaged every 2–3 days by resuspending in medium and seeding them to appropriate confluence. Membranes were prepared from transiently transfected HEK293T cells. One day prior to transfection 10^7 cells were seeded in a 15 cm petri dish. Cells were transfected by the addition of a 3:1 mixture of polyethyleneimine (60 μg) and plasmid DNA (20 μg) in 2 ml serum-free medium. The medium was refreshed after 24 h, and after 72 h the cells were harvested by suspending them in 20 ml medium. The suspension was centrifuged for 10 min at 1000, rpm, and the supernatant was removed. The cell pellet was stored at −80 °C until use. Cell pellets were thawed on ice and suspended in lysis buffer A (20 mM HEPES, 2 mM DTT, 0.25 M sucrose, 1 mM MgCl2, […] Benzonase). The suspension was homogenized by polytrone (3 × 7 s) and incubated for 30 min on ice. The suspension was subjected to ultracentrifugation (100,000 × g, 30 min, 4 °C, Beckman Coulter, Type Ti70 rotor) to yield the cytosolic fraction in the supernatant and the membrane fraction as a pellet. The pellet was resuspended in lysis buffer B (20 mM HEPES, 2 mM DTT). The protein concentration was determined with Quick Start Bradford assay (Biorad). The protein fractions were diluted to a total protein concentration of 1 mg ml^−1 and stored in small aliquots at −80 °C until use.
Percentage of inhibition of reference ligands was determined in comparison with an untreated control. […] Fluorescence was measured in 5 min intervals for 60 min.

hCB2R [1] = target: T2, hCB2R (Homo sapiens, UniProt P34972); assay: cell-based; type: cell-based; set-up: expressed in transfected cells; host or cells: Flp-In-293 (Invitrogen #R750-07), pcDNA5/FRT; conditions: for Emax: read-out: Emax ± SEM pERK hCB2R
T2 sequence (P34972 whole entry): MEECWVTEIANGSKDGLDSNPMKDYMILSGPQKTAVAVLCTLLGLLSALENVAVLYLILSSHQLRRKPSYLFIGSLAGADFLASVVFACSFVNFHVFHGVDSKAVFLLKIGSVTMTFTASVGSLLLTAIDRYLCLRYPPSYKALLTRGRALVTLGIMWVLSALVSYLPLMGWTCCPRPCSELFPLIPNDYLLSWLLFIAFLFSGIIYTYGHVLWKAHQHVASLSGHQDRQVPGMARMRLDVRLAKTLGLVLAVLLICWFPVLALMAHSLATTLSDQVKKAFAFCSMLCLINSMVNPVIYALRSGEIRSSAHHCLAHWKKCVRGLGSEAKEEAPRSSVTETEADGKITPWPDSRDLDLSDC

hCB2R [2] = target: T2, hCB2R; assay: cell-based; type: cell-based; set-up: expressed in transfected cells; host or cells: Flp-In-293 (Invitrogen #R750-07), pcDNA5/FRT; conditions: for Emax: read-out: Emax ± SEM cAMP hCB2R
hCB2R [3] = target: T2, hCB2R; assay: biochemical; type: biochemical; set-up: expressed in transfected cells; host or cells: Flp-In-293 (Invitrogen #R750-07), pcDNA5/FRT; conditions: for Emax: read-out: Emax ± SEM GTPγS hCB2R
mCB1R = target: T3, mCB1R (Mus musculus, UniProt P47746); assay: biochemical; conditions: for Emax: read-out: Emax cAMP mCB1R
T3 construct: from tissue; host or cells: brain of male C57BL/6J mice
T3 sequence (P47746 whole entry): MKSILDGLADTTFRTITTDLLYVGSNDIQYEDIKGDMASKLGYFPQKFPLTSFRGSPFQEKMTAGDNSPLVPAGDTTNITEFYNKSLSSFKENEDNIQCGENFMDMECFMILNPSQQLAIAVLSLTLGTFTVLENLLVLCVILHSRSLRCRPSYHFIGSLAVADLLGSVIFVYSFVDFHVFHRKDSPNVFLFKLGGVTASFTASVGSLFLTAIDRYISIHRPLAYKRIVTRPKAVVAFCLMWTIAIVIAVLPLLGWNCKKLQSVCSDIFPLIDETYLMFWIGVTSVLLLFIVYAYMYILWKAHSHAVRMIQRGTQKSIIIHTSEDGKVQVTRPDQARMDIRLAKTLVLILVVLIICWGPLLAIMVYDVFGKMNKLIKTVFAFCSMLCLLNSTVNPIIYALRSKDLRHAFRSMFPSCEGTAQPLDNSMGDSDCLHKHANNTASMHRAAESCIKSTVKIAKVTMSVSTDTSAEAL

hDAGL-α = target: T4, hDAGL-α (Homo sapiens, UniProt Q9Y4D2); assay: Biochemical DAGLα activity assay; conditions: for inhibition at 10 µM: read-out: DAGL % inhibition at 10 µM ± SD
T4 construct: expressed in transfected cells; host or cells: HEK293T (transient), membrane preparation
T4 sequence (Q9Y4D2 1-1042): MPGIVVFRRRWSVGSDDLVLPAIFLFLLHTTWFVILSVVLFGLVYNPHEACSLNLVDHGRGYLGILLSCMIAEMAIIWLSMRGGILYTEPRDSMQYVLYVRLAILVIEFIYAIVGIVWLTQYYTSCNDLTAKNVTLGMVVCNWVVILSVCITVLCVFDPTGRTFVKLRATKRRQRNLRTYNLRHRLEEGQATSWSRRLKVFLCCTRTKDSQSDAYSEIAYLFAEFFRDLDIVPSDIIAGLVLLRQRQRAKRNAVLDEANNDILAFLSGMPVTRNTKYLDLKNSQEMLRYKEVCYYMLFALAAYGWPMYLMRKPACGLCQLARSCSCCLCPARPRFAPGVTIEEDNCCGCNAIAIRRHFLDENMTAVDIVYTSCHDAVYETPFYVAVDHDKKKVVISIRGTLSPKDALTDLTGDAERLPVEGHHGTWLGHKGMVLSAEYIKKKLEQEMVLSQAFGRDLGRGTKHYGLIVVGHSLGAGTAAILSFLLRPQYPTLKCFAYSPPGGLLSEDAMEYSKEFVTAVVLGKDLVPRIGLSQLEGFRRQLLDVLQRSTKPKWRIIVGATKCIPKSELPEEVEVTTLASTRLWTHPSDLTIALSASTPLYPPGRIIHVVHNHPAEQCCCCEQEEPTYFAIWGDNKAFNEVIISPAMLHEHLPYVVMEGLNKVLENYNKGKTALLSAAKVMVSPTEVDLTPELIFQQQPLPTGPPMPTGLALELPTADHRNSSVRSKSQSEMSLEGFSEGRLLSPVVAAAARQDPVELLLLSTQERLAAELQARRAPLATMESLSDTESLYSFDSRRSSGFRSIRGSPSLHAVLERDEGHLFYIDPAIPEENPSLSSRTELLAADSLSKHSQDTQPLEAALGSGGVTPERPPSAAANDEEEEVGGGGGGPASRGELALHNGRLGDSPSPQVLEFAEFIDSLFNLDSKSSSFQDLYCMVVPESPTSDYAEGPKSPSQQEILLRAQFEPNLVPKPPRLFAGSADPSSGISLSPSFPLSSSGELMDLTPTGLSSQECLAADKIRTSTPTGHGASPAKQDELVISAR
Procedure: as §1
hDAGL-α activity was measured by the extent of the hydrolysis of para-nitrophenylbutyrate (PNP-butyrate) by membrane preparations from HEK293T cells (source: Dutch Cancer Institute) transiently transfected with hDAGL-α (ref. [43]). Percentage of inhibition of reference ligands was determined in comparison with an untreated control. Reactions were performed in 50 mM pH 7.2 HEPES buffer with 0.05 μg μl^−1 final protein concentration hDAGL-α transfected protein.

5-HT2B (h) = target: T5, 5-HT2B (h) (Homo sapiens, UniProt P41595); assay: CEREP panel; type: binding; conditions: 10 µM; for inhibition at 10 µM: read-out: % inhibition 5-HT2B (h)
T5 construct: CEREP (contract assay)
T5 sequence (P41595 whole entry): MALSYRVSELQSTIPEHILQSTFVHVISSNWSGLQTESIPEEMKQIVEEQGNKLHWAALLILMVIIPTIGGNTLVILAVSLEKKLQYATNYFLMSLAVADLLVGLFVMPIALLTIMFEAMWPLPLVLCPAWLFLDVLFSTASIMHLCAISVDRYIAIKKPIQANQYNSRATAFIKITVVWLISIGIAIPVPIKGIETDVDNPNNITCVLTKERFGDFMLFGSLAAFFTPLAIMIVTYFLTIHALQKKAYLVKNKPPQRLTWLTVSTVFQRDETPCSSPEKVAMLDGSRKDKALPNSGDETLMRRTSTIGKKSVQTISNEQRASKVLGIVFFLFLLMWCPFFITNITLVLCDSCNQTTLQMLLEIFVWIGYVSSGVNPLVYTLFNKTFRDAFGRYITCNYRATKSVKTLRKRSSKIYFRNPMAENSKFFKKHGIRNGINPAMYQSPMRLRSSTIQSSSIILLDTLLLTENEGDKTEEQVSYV

| Compound | MAGL % inhibition at 10 µM ± SD (MAGL) | Emax ± SEM pERK hCB2R (hCB2R [1]) | Emax ± SEM cAMP hCB2R (hCB2R [2]) | Emax ± SEM GTPγS hCB2R (hCB2R [3]) | DAGL % inhibition at 10 µM ± SD (hDAGL-α) | inhibition at 10 µM (MAGL) | inhibition at 10 µM (hDAGL-α) | pEC50 ± SEM cAMP mCB1R (mCB1R; mouse brain) | % inhibition 5-HT2B (h) (5-HT2B (h)) | other results |
| --- | --- | --- | --- | --- | --- | --- | --- | --- | --- | --- |
| CN1CCCCC1Cn1cc(C(=O)c2cc([N+](=O)[O-])ccc2I)c2ccccc21 (racemic) [(rac)-AM1241] | -2 ± 17% | 32 ± 12 | 67 ± 3 | 56 ± 9 | 3 ± 10% |  |  |  |  | CB2R Selectivity pERK (hCB2R [1]): 339; pEC50 ± SEM pERK hCB2R (hCB2R [1]): 7.6 ± 0.88; pEC50 ± SEM cAMP hCB2R (hCB2R [2]): 8.49± 0.08; hCB2R Selectivity GTPγS (hCB2R [3]): 0.03; pEC50 ± SEM GTPγS hCB2R (hCB2R [3]): 6.89 ± 0.66; Emax cAMP mCB1R (mCB1R): 21; pEC50 ± SEM cAMP mCB1R (mCB1R): < 5 |
| CCCCC/C=C\C/C=C\C/C=C\C/C=C\CCCC(=O)OC(CO)CO [2-AG, 2-arachidonoyl glycerol] |  |  |  |  |  | 3 ± 15% | -12 ± 16% |  |  | EC50 (hCB2R [1]; pEC50 ± SEM pERK hCB2R): 3.89 µM and > 3.16 µM; Emax (hCB2R [1]): 99 ± 11%; Emax (hCB2R [2]): 94 ± 1%; Emax (hCB2R [3]): 57 ± 11%; EC50 (hCB2R [3]; read-out: pEC50 ± SEM GTPγS hCB2R (converted)): 0.646 µM; EC50 (mCB1R; mouse brain, read-out: pEC50 ± SEM cAMP mCB1R (converted)): > 6.31 µM and 6.92 µM |
| CN1CCCC[C@@H]1Cn1cc(C(=O)c2cc([N+](=O)[O-])ccc2I)c2ccccc21 [(R)-AM1241] | -2 ± 18% | 75 ± 9 | 65 ± 2 | 33 ± 2 | 10 ± 12% |  |  | 5.08 ± 0.16 |  | pEC50 ± SEM pERK hCB2R (hCB2R [1]): 7.84 ± 0.29; CB2R Selectivity pERK (hCB2R [1]; 10^(pEC50 CB2R-pEC50 CB1R)): 151 fold; pEC50 ± SEM cAMP hCB2R (hCB2R [2]): 8.76 ± 0.18; CB2R Selectivity cAMP (human) (hCB2R [2]; 10^(pEC50 CB2R-pEC50 CB1R)): 391 fold; pEC50 ± SEM GTPγS hCB2R (hCB2R [3]): 7.40 ± 0.50; hCB2R Selectivity GTPγS (hCB2R [3]; 10^(pEC50 CB2R-pEC50 CB1R)): 4 fold; Emax cAMP mCB1R (mCB1R): 32 |
| CN1CCCC[C@H]1Cn1cc(C(=O)c2cc([N+](=O)[O-])ccc2I)c2ccccc21 [(S)-AM1241] | -4 ± 18% | 60 ± 11 | 78 ± 1 | 47 ± 5 | 9 ± 9% |  |  | 5.43 ± 0.42 | 93% | pEC50 ± SEM pERK hCB2R (hCB2R [1]): 6.92 ± 0.22; pEC50 ± SEM cAMP hCB2R (hCB2R [2]): 7.40 ± 0.11; Emax cAMP mCB1R (mCB1R): 16 |
| Cc1c(C(=O)NN2CCCCC2)nn(-c2ccc(Cl)cc2Cl)c1-c1ccc(I)cc1 [AM251] | 0 ± 16% | -90 ± 3 | -175 ± 19 | -29 ± 2 | 17 ± 6% |  |  |  | 28% |  |
| CCCCC/C=C\C/C=C\C/C=C\C/C=C\CCCC(=O)NCCO [Anandamide, N-arachidonoylethanolamine] |  |  |  |  |  | -2 ± 19% | 32 ± 22% |  |  | Emax (hCB2R [1]): 62 ± 2%; Emax (hCB2R [2]): 87 ± 7%; Emax (hCB2R [3]): 31 ± 4%; Emax (mCB1R): < 70% |
| CCCCCCC(C)(C)c1ccc([C@@H]2C[C@H](O)CC[C@H]2CCCO)c(O)c1 [CP55940] |  |  |  |  |  | 5 ± 16% | 20 ± 16% |  |  | Emax (hCB2R [3]): 95 ± 4%; inhibition at 10 µM (5-HT2B (h)): 96%; EC50 (mCB1R; pEC50 ± SEM cAMP mCB1R): 6.03e-06 µM; Emax (mCB1R): 100% |
| Cc1ccc2c(c1)Cc1c(C(=O)NN3CCCCC3)nn(-c3ccc(Cl)cc3Cl)c1-2 [Gp-1a] | -1 ± 15% |  |  |  |  |  |  | 5.86 ± 0.42 | 29% | Emax ± SEM pERK hCB2R (hCB2R [1]; normalized to 10 µM CP55940): 5 ± 6%; pEC50 ± SEM cAMP hCB2R (hCB2R [2]; antagonists in presence of EC80 of CP55940): 7.52 ± 0.14; Emax ± SEM cAMP hCB2R (hCB2R [2]; normalized to 10 µM CP55940): -85 ± 10%; pEC50 ± SEM GTPγS hCB2R (hCB2R [3]): 7.09 ± 0.07; Emax ± SEM GTPγS hCB2R (hCB2R [3]; normalized to 10 µM CP55940, negative = inverse agonism): -14 ± 5%; Emax cAMP mCB1R (mCB1R; normalized to 10 µM CP55940): -28% |
| CCCn1c(C)c(C(=O)c2cccc3ccccc23)c2ccccc21 [JWH015] | 0 ± 17% |  |  |  | -8 ± 5% |  |  | < 5 | 94% | Emax cAMP mCB1R (mCB1R; normalized to 10 µM CP55940): 29% |
| Cc1c(C(=O)NN2CCCCC2)nn(-c2ccc(Cl)cc2Cl)c1-c1ccc(Cl)cc1 [SR141716A] |  |  |  |  |  | 4 ± 18% | 20 ± 10% |  |  | inhibition at 10 µM (5-HT2B (h)): 16% |
| Cc1c(C(=O)c2cccc3ccccc23)c2cccc3c2n1[C@H](CN1CCOCC1)CO3 [WIN55212-2] | 3 ± 18% |  |  |  | -9 ± 12% |  |  |  | 70% |  |
